According to publication PMC9809337, “Discovery of HCD3514 as a potent EGFR inhibitor against C797S mutation in vitro and in vivo” (Journal of Cancer, 2023):
Where two headings read alike, the source gives them in different places.

Columns and labels:
[1] = tested on: BaF3-EGFR^19del/T790M/C797S mouse xenograft tumors; assay type: in vivo; details: for phosphorylation of EGFR and Erk in tumors (Western blot): tumor tissues collected 2 h after last treatment
Protocol: Western blotting was performed as described previously. Cells were collected by trypsin and then lysed with SDS lysis buffer. Tumor tissues were homogenized in RIPA buffer on ice, followed by centrifugation at 12,000 x g for 30 min.
Mice were sacrificed and tumors were harvested for Western blot analysis. All animal study was approved by the Institutional Animal Care and Use Committee of the Shanghai Institute of Materia Medica and strictly performed according to the institutional ethical guidelines on animal care.

[2] = tested on: EGFR phosphorylation in triple mutant BaF3 cells and PC-9-OR cells; assay: Western blot of EGFR phosphorylation in EGFR^C797S triple mutant cells; assay type: cell-based; details: treated 2 h
[3] = tested on: BaF3-EGFR^L858R/T790M/C797S cells; assay: Cell proliferation assay (CCK8/SRB); details: Ba/F3 EGFR-L858R, 72 h, read-out: IC50, antiproliferation activity
[4] = tested on: BaF3-EGFR^19del/T790M/C797S cells; assay: Cell proliferation assay (CCK8/SRB); details: 72 h, read-out: IC50, antiproliferation activity
BaF3 parental cells = assay: Cell proliferation assay (CCK8/SRB); details: Mus musculus, BaF3, 72 h, read-out: IC50, antiproliferation activity
PC-9-OR cells [5] = assay: Cell proliferation assay (CCK8/SRB); details: PC9-OR, 72 h, read-out: IC50, antiproliferation activity
[6] = tested on: BaF3-EGFR^L858R/T790M cells; assay: Cell proliferation assay (CCK8/SRB); details: Ba/F3 EGFR-L858R, 72 h, read-out: IC50, antiproliferation activity
[7] = tested on: BaF3-EGFR^19del/T790M cells; assay: Cell proliferation assay (CCK8/SRB); details: 72 h, read-out: IC50, antiproliferation activity
NCI-H1975 cells = assay: Cell proliferation assay (CCK8/SRB); details: Homo sapiens, NCI-H1975, 72 h, read-out: IC50, antiproliferation activity
EGFR^L858R/T790M/C797S = EGFR^L858R/T790M/C797S (Homo sapiens, UniProt P00533, C797S/L858R/T790M); assay: In vitro kinase assay (ELISA); assay type: biochemical; details: mean ± SD of three independent experiments, read-out: IC50, kinase inhibitory activity against EGFR^L858R/T790M/C797S
EGFR^19del/T790M/C797S = EGFR^19del/T790M/C797S (Homo sapiens, UniProt P00533, C797S/DEL746-750/T790M); assay: In vitro kinase assay (ELISA); assay type: biochemical; details: mean ± SD of three independent experiments, read-out: IC50, kinase inhibitory activity against EGFR^19del/T790M/C797S
EGFR^L858R/T790M = EGFR^L858R/T790M (Homo sapiens, UniProt P00533, L858R/T790M); assay: In vitro kinase assay (ELISA); assay type: biochemical; details: mean ± SD of three independent experiments, read-out: IC50, kinase inhibitory activity against EGFR^L858R/T790M
EGFR^19del/T790M = EGFR^19del/T790M (Homo sapiens, UniProt P00533, DEL746-750/T790M); assay: In vitro kinase assay (ELISA); assay type: biochemical; details: mean ± SD of three independent experiments, read-out: IC50, kinase inhibitory activity against EGFR^19del/T790M
[8] = tested on: BaF3-EGFR^L858R/T790M/C797S cells; assay: Cell apoptosis analysis (Annexin V-FITC, flow cytometry); assay type: cell-based; details: 48 h
Protocol: (§1) Then cells were collected and washed with PBS and measured by Annexin V-FITC Apoptosis detection kit (cat. no. A211-02, Vazyme Biotechnology). Signals were measured using FACS Calibur flow cytometer, and FlowJo software was used to analyze the data.

[9] = tested on: EGFR phosphorylation in BaF3-EGFR^L858R/T790M, BaF3-EGFR^19del/T790M and NCI-H1975 cells; assay: Western blot of EGFR phosphorylation in EGFR^T790M double mutant cells; assay type: cell-based; details: treated 2 h
Protocol: (§2) Western blotting was performed as described previously. Cells were collected by trypsin and then lysed with SDS lysis buffer. Tumor tissues were homogenized in RIPA buffer on ice, followed by centrifugation at 12,000 x g for 30 min. The concentration of protein was measured with BCA protein assay kit (cat. no. 23227, Thermo Fisher Scientific). After heating at 100 °C for 15 min, protein samples were separated on 8-12% SDS-PAGE gels, and then transferred to nitrocellulose membranes (Life Technologies). Membranes were blocked in 5% nonfat milk-TBST and immunoblotted with primary antibodies against phospho-EGFR (Tyr1068; dilution, 1:500; cat. no. 2234L, CST), EGFR (dilution, 1:1000; cat. no. 4267S, CST), PARP (dilution, 1:1000; cat. no. 9542S, CST), caspase-3 (dilution, 1:1000; cat. no. 9662S, CST), cleaved caspase-3 (dilution, 1:1000; cat. no. 9664S, CST), phospho-Erk (Thr202/Tyr204; dilution, 1:1000; cat. no. 4370S, CST), Erk (dilution, 1:1000; cat. no. 4695S, CST) and β-actin (dilution, 1:20000; cat. no. 60008-1-Ig, Proteintech) at 4 °C overnight and then incubated with secondary antibodies (cat. no. 111-035-003, Jackson).

[10] = tested on: cleaved caspase-3 and cleaved PARP in triple mutant BaF3 and PC-9-OR cells; assay: Western blot of apoptosis-related proteins; assay type: cell-based
Protocol: as §2

EGFR^WT [11] = molecular target: EGFR^WT (Homo sapiens, UniProt P00533); assay: In vitro kinase assay (ELISA)
EGFR^WT [12] = assay: In vitro kinase assay (ELISA); details: EGFR^C797S triple mutants versus EGFR^WT, kinase IC50
MRC-9 cells = assay: Cell proliferation assay (CCK8/SRB); details: Homo sapiens, MRC9, 72 h, read-out: IC50, antiproliferative activity
GSE-1 cells = assay: Cell proliferation assay (CCK8/SRB); details: Homo sapiens, 72 h, read-out: IC50, antiproliferative activity
[13] = tested on: BaF3-EGFR^19del/T790M/C797S cells; assay: Cell apoptosis analysis (Annexin V-FITC, flow cytometry); assay type: cell-based; details: 3 μM, 48 h
Protocol: as §1

PC-9-OR cells [14] = assay: as above; assay type: cell-based; details: 3 μM, 48 h
Protocol: as §1

[15] = triple mutant BaF3 cells and PC-9-OR cells

EGFR^WT (Homo sapiens, UniProt P00533), sequence (P00533 712-979 limits assumed): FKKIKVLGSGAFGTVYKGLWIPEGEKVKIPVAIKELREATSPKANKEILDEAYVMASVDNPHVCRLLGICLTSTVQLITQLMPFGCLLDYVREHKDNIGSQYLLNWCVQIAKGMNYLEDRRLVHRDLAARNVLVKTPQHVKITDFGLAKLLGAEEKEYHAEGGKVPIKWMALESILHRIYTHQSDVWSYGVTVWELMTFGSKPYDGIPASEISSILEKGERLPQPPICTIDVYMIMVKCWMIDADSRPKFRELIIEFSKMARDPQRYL
EGFR^L858R/T790M, sequence (P00533 712-979 T790M/L858R limits assumed): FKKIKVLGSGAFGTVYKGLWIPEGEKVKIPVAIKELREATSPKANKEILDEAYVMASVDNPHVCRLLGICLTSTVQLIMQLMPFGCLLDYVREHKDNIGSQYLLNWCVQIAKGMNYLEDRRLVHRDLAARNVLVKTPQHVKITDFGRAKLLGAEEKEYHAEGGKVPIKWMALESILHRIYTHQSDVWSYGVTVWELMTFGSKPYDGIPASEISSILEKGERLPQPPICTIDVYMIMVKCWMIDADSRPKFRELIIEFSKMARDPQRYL
EGFR^L858R/T790M/C797S, sequence (P00533 712-979 T790M/C797S/L858R limits assumed): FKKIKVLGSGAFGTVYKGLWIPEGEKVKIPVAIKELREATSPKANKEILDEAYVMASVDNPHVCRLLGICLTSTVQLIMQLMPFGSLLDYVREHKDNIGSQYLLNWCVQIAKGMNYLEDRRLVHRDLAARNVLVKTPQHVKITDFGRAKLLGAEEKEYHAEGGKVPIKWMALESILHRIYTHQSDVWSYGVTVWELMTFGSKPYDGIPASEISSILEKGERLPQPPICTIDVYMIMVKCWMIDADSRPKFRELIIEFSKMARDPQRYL
EGFR^19del/T790M/C797S, sequence (P00533 with tags, fused parts or gaps DEL746-750/T790M/C797S limits assumed): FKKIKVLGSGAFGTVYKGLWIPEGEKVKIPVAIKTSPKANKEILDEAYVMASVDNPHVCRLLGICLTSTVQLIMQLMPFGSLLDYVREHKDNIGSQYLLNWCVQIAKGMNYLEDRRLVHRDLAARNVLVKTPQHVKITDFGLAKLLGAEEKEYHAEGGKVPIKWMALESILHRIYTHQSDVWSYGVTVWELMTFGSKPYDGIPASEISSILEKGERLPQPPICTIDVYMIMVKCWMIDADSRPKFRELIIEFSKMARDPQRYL
EGFR^19del/T790M, sequence (P00533 with tags, fused parts or gaps DEL746-750/T790M limits assumed): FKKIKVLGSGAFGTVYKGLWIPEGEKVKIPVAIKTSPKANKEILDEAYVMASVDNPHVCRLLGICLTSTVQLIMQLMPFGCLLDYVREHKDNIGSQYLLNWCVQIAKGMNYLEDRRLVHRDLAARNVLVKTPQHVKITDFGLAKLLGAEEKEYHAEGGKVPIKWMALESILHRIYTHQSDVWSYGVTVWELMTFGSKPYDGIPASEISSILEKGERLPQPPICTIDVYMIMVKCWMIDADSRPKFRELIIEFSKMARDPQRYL

Structure (SMILES) | phosphorylation of EGFR and Erk in tumors (Western blot) [1] | IC50 [3] [nM] | IC50 [4] [nM] | IC50 (BaF3 parental cells) [nM] | IC50 (PC-9-OR cells [5]) [nM] | IC50 [6] [nM] | IC50 [7] [nM] | IC50 (NCI-H1975 cells) [nM] | apoptosis rate ([8]; 3 μM) | EGFR phosphorylation (Western blot) [2, 15] | further results
C=CC(=O)Nc1cc(Nc2nccc(-c3cn(C)c4ccccc34)n2)c(OC)cc1N(C)CCN(C)C [AZD9291, Osimertinib, reference compound] | no obvious inhibitory activities of EGFR and Erk | 5500 ± 330 | 5930 ± 780 | 3520 ± 920 | 6300 | […] | […] | […] |  |  | reduction of tumor growth compared to vehicle ([1]; 25 mg/kg, oral, once a day, BALB/c nude mice): did not show significant reduction of tumor growth; EGFR phosphorylation (Western blot) ([2]; 1 μM, all three EGFR^C797S triple mutant cells): failed to suppress
CCS(=O)(=O)n1cc(-c2nc(Nc3ccc(N4CCC(N5CCN(C)CC5)CC4)c(OC(C)C)c3)ncc2Cl)c2ccccc21 [HCD3514] | decreased phosphorylation of EGFR and the downstream signaling phosphorylation of Erk level | 350 | 250 | 1310 | 480 | 660 | 520 | 490 | 98.27% | potently and dose-dependently suppressed | IC50 (EGFR^L858R/T790M/C797S): 1 nM; IC50 (EGFR^19del/T790M/C797S): 2 nM; IC50 (EGFR^L858R/T790M): 4.9 nM; IC50 (EGFR^19del/T790M): 8.9 nM; apoptosis rate ([8]; 1 μM): 72.39%; tumor growth inhibition (TGI) ([1]; 50 mg/kg, oral, once a day, BALB/c nude mice): 22.53%; tumor growth inhibition (TGI) ([1]; 75 mg/kg, oral, once a day, BALB/c nude mice): 37.73%; tolerability, body weight throughout the study ([1]; 50 and 75 mg/kg, oral, once a day, BALB/c nude mice): well-tolerated, with body weight maintained throughout the study; tumor weight ([1]; 50 and 75 mg/kg, tumors harvested 2 h after last oral administration): reduced with the increased concentration; EGFR phosphorylation (Western blot) ([9]; BaF3-EGFR^L858R/T790M and BaF3-EGFR^19del/T790M cells): dose-dependently suppressed; expression of phospho-EGFR (Western blot) ([9]; NCI-H1975 cells): down-regulated; expression of cleaved caspase-3 and cleaved PARP (Western blot) [10]: dose-dependently up-regulated; IC50 (EGFR^WT [11]): 156 ± 6.9 nM; selectivity over EGFR^WT (EGFR^WT [12]): more than 78 fold; IC50 (MRC-9 cells): 1030 nM; IC50 (GSE-1 cells): 1040 nM
COc1cc(N2CCC(N3CCN(C)CC3)CC2)ccc1Nc1ncc(Cl)c(Nc2ccccc2P(C)(C)=O)n1 [brigatinib] |  | 610 ± 210 | 310 ± 90 | 4720 ± 2150 | 400 |  |  |  | around 80% | significantly reduced | apoptosis rate [13]: around 80%; apoptosis rate (PC-9-OR cells [14]): around 80%
